How the values were obtained:
Assay type in all cases: cell-based
[1] = system: SKW-3 cells expressing AF-7 (TRAV1-2/TRBV6-1) TCR; assay: MAIT cell activation assay, SKW-3 AF-7 TCR co-cultured with C1R.MR1; details: SKW-3 AF-7, ligand alone
Method: (§1) Next, we explored whether RF catabolites could activate SKW-3 cells expressing two different MAIT TCRs. Distinct responses of T cells expressing TCRs with varying TRBV chain usage reinforces the role of Vβ in modulating MAIT responses to various ligands ([Chancellor et al., 2023]; [Gherardin et al., 2016]; [Seneviratna et al., 2022]).The surface expression of CD69 was measured as a marker for activation of cells expressing the AF-7 (TRAV1-2/TRBV6-1) or MBV28 (TRAV1-2/TRBV28) TCRs after co-culture with C1R.MR1 cells and the ligands.
(§2) C1R.MR1 cells (1 x 10^5) were initially stained with CTV for 15 minutes and then incubated with RF catabolites for 20 h. […] Cells were subsequently stained with PE-Cy7-conjugated anti-CD69 (BD; 1:100) and PE-labelled anti-MR1 (26.5 clone; BD; 1:100), before analysis on LSRFortessa (BD Biosciences) flow cytometer. Activation of SKW-3-MAIT cells was reflected by the cell-surface CD69 expression.

[2] = system: SKW-3 cells expressing MBV28 (TRAV1-2/TRBV28) TCR; assay: MAIT cell activation assay, SKW-3 MBV28 TCR co-cultured with C1R.MR1; details: SKW-3 MBV28, ligand alone
Method: as §1, §2

MAIT cells in human PBMC [3] = assay: MAIT cell proliferation in CTV-labeled PBMCs; details: day 7, 5-OP-RU 10 μM, RF ligands 100 μM
MAIT cells in human PBMC [4] = assay: Primary MAIT activation (CD69) in PBMCs; details: 16 h, ligand alone
C1R.MR1^R9H cells = assay: Cell surface MR1 R9H quantification, C1R.MR1^R9H
Text: We then tested the effect of the RF catabolites on the expression of two mutant versions of MR1 termed MR1^R9H ([Howson et al., 2020]) and MR1^K43A ([Reantragoon et al., 2013]). First, we tested the MR1^R9H mutant ([Howson et al., 2020]) which represents a rare, natural human polymorph. […] When C1R. […] Next, we tested sought to understand how the previously characterised Lys43A mutation affects ligand binding. […] While this is in line with the ability of these ligands to bind MR1, the reason for MR1^K43A cell surface accumulation is less clear. The most likely explanation is that these ligands bind ER-resident MR1^K43A, in line with our data using wild-type MR1; however, because the K43A mutation results in spontaneous MR1 surface egress, the presence of these stabilising ligands promotes enhanced trafficking and/or retention at the cell surface. We cannot rule out however that the ligands may also bind directly to surface MR1^K43A and slow down the recycling from cell surface.
The level of MR1 expressed on the cell surface was measured after the exposure to the investigated ligands as previously described ([Awad et al., 2020a]; [Wang et al., 2022a]). […] The PE fluorescence intensity reflects the surface MR1 level. The data was acquired with an LSRFortessa X-20 (BD Biosciences) and Diva software (BD Biosciences) and analyzed using FlowJo software (BD Biosciences).

C1R.MR1 cells [5] = assay: Endo H treatment and western blot of intracellular MR1; details: C1R.MR1, 16 h; RF and catabolites 100 μM, Ac-6-FP 10 μM
Method: The downregulation of MR1 on the cell surface by the RF catabolites could be due to the depletion of the intracellular ER-resident MR1 pool, or by retention of MR1 in the ER, as shown for the DB28 ligand ([Salio et al., 2020]). To investigate this, C1R.MR1 cells were treated for 16 h with 100 μM of RF or RF catabolites, conditions which induce MR1 downregulation (Fig. 3A). Cells were lysed, and treated with endoglycosidase (Endo) H, to distinguish molecules that remain within the ER from those that have trafficked to the cell surface ([McWilliam et al., 2016]), then MR1 levels were assessed by immunoblotting (Fig. 3A).
Figure 3. […] S, Endo H–susceptible MR1; R, Endo H–resistant MR1. The Endo H–susceptible MR1 and Endo H–resistant MR1 fractions were quantified in at least two independent experiments. (b) Intracellular total MR1 level was also measured in C1R.MR1 cells by flow cytometry after treating the cells with the indicated ligands (100 μM) for 16h followed by permeabilization and staining with anti-MR1-PE (8F2.F9). Shown are the overlay histograms (top) and a bar chart depicting the geometric mean fluorescence intensity (gMFI) fold change of intracellular MR1 level (bottom) from three independent experiments performed in duplicates, with standard error (SEM) represented by the error bars. […]

C1R.MR1 cells [6] = assay: Intracellular total folded MR1 by flow cytometry (8F2.F9); details: C1R.MR1, 100 μM, 16 h

**Q.** Which results are given for Nc1nc2ncc(C=O)nc2c(=O)[nH]1 [6-FP, 6-formylpterin, reference compound]?
**A.** CD69 surface expression (activation) [1]: moderately reduced basal CD69 levels; CD69 surface expression (activation) [2]: moderately reduced basal CD69 levels

**Q.** With CC(=O)C=Nc1c(NC[C@H](O)[C@H](O)[C@H](O)CO)[nH]c(=O)[nH]c1=O [5-OP-RU, 5-(2-oxopropylideneamino)-6-D-ribitylaminouracil, reference compound] as the compound, how does the “CD69 surface expression (activation)” value [1] read?
**A.** Its value is “induced strong activation”.

**Q.** What about the “CD69 surface expression (activation)” value [2] of the same compound?
**A.** The value was “induced strong activation”.

**Q.** And the MAIT cell proliferation (MAIT cells in human PBMC [3])?
**A.** The MAIT cell proliferation was “significantly proliferated”.

**Q.** What about the “CD69 expression on gated MAIT cells” value (MAIT cells in human PBMC [4]) of the same compound?
**A.** Its value is “induced robust CD69 upregulation”.

**Q.** With CC(=O)Nc1nc2ncc(C=O)nc2c(=O)[nH]1 [Ac-6-FP, acetyl-6-FP, reference compound] as the compound, how does the “MR1^R9H surface level” value (C1R.MR1^R9H cells) read?
**A.** Its value is “significantly increased”.

**Q.** What about the “Endo H-resistant MR1” value (C1R.MR1 cells [5]) of the same compound?
**A.** The value was “increase in MR1 of a higher molecular weight”.

**Q.** What about the “total level of folded MR1 (intracellular staining with 8F2.F9)” value (C1R.MR1 cells [6]) of the same compound?
**A.** The value was “significantly increased”.

Reference: article doi:10.1101/2025.07.20.665728 (bioRxiv, 2025)
